Laboratory results reported in US4738803A, “Amino acid derivatives and their use as antidepressives and hypotensive agents” (priority 1981, dated 1988).
Read-outs that look alike come from different tables or passages of the source.

Tests used:
[1] = tested on: phenylbenzoquinone-induced pain; test: Phenylbenzoquinone or "writhing" test; assay type: in vivo, mouse; conditions: for protection from phenylbenzoquinone-induced pain: p<0.01 versus controls
Text: (3) Phenylbenzoquinone or "writhing" test according to the method of Siegmund and co-workers (Proc. Soc. Expert Biol. Med. 1957, 95, 729-731).
Here again, if the antinociceptive effects of these compounds are compared with those of Thiorphan, a selective enkephalinase-inhibitor, a distinctly greater maximum effect is observed. […] This more pronounced analgesic effect is attributable to an improved protection of the endogenic opioid peptides, in relation with the inhibition not only of the enkephalinase, but also of the aminopeptidases involved in their hydrolysis.

[2] = tested on: licking reflex of mice on a plate heated at 55° C; test: Hot plate test: specific antalgic effect; assay type: in vivo; conditions: for antalgic effect in the hot plate test: 55° C, intravenous, in words; for ED50: hot plate 55° C, i.v.
Method: (§1) Licking reflex of mice on a plate heated at 55° C. according to the method of Jacob et co-workers (Arch. Int. Pharmacodyn. 122, 287-300, 1959: 133, 296-300, 1961).
(b) Specific antalgic effect
By the intravenous route.

[3] = tested on: withdrawal of the tail of mice; test: Withdrawal of the tail immersed in water heated to 48° C; assay type: in vivo
Method: (2) Test in mice of the withdrawal of the tail immersed in water heated to 48° C. according to the method of Sewell and Spencer (Neuropharmacology, 1976, 15, p. 683-688).

[4] = tested on: licking reflex of mice on a plate heated at 55° C; test: Hot plate test: potentiation of the antalgic effect of D Ala2 Met Enkephalin; assay type: in vivo; conditions: for increase in the licking time with respect to animals treated with DAla2 Met Enkephalin (0.3γ intraventricular): 30 mg/kg intravenous; for antagonism of the potentiating effect by Naloxone / potentiation of the effect of a subactive dosage (0.3γ) of D Ala2 Met Enkephalin: 30γ, in words; for potentiation of the effect of a subactive dosage (0.3γ) of D Ala2 Met Enkephalin: p<0.05
Method: as §1
(a) Potentiation of the antalgic effect of DAla2 Met Enkephalin:
(α) By the intraventricular route (ivt):
(β) By the intravenous route:
When administered by the intravenous route, the derivatives No. 2, 30 and 63 at the dose of 30 mg/kg produce a 100% increase in the licking time with respect to animals treated with DAla2 Met Enkephalin (0.3γ intraventricular).

[5] = molecular target: enkephalinase; test: Dosage of enkephalinasic (enkephalin dipeptidylcarboxypeptidasic) activity, effect of the inhibitors (striatal membrane fraction); assay type: biochemical, rat or mouse; conditions: 10 nM leucine-enkephalin ^3H, 0.1 mM puromycine, pH 7.4, 25° C, 15 min; read-out: 50% inhibitory concentration
Method: (I) Dosage of the "enkephalinasic" activity (enkephalin dipeptidylcarboxypeptidasic) and determination of the effect of the inhibitors
The enzyme preparation employed is a membrane fraction from the striatum of the rat or mouse.
This fraction is obtained by homogenization at 4° C. in 20 volumes of Tris-Hl buffer 0.05M (pH 7.4) followed by two successive centrifugations (1000 g×min. and 200,000 g×min.) at the end of which the sediment of the second centrifugation is retained. It is washed by resuspension in 10 ml of the buffer followed by centrifugation (200,000 g×min.) and the resulting sediment is in turn washed superficially to complete the removal soluble enzymes. The resulting membrane fraction is taken up into the buffer at 4° C. to obtain a suspension comprising about 1.5 mg of proteins per ml.
An aliquot sample (50 μl) of the membrane suspension is then incubated in a final volume of 100 μl at 25° C. in the presence of 10 nM leucine-enkephalin ^3 H (39 Ci/mmole), previously purified by column chromatography over Porapak Q(100-120 mesh, Waters Assoc.) and 0.1 mM puromycine, an aminopeptidase inhibitor. The incubation time is generally set at 15 min. so as to determine the initial rate of formation of tripeptide Tyr-Gly-Gly-^3 H caracteristic of the enkephalin dipeptidylcarboxypeptidasic (enkephalinasic) activity. The reaction is terminated by the addition of 25 μl of 0.2N HCl and the tripeptide is isolated by column chromatography over Polopak Q or on a thin layer of silica, according to the methods described by Malfroy et al (B. Malfroy, J. P. Swerts, C. Llorens and J. C. Schwartz, Neuro-Science Letters, 11, 329, 1979).
The results obtained with either method have always been consistent.
Determination of the radioactivity of the tripeptide is effected by liquid scintillation spectrometry.
The effect of the inhibitors is established by experiments with increasing concentrations of such materials, which leads to the determination of the 50% inhibitory concentrations calculated by means of data according to the method of Parker and Waud (J. Pharmacol. Exper. Ther. 177, 1, 1971). In some cases, the competitive nature of the inhibition was established by incubation experiments with a fixed concentration of the inhibitor and increasing concentrations of the substrate.

[6] = tested on: mice; test: Subacute toxicity, intraperitoneal, three weeks
Method: The derivative 63 was administered by the intraperitoneal route for three weeks to mice at the dose of 50 mg/kg three times a day (150 mg/kg/day).

[7] = tested on: (Met^5) enkephalin liberated by depolarisation of striatum sections; test: Protection of endogenic enkephalins liberated by depolarisation of striatum sections; assay type: cell-based, rat; conditions: for (Met^5) liberated enkephalin: 50 mM KCl, no inhibitor: 120 ± 25
Method: (II) Protection of the endogenic […] liberated by depolarisation of the brain sections
Stratium sections of the rat are incubated in a medium of Krebs-Ringer and the (Met^5) enkephalin liberated by addition of 50 mM KCl is evaluated by radioimmunologic dosage (Patey and Coll., Science, 1981, 212, 1153-1155).
The higher protection of the liberated enkephalins afforded by these compounds is thence attributed to the inhibition of peptidases (probably aminopeptidases) other than those which are sensitive to thiorphan.

[8] = tested on: immobile periods of mice; conditions: 1 mg/kg i.v.; p<0.001; in words
Text: Forced swimming or "Mice Despair" test according to Porsolt's method.
This test is representative of an antidepressive effect.

[9] = tested on: blood pressure; conditions: 10 mg/kg intravenous; in words
Text: (VI) Hypotensive Activity
Specific enkephalin-potentiating activity, (Laubie M. Schmith H., Vincent M., Remon D. Central cardiovascular effects of Morphinometic peptides in dogs. European Journal of Pharmacology, vol. 46, 67-71, 1977).

[10] = 30 mg/kg intravenous, DAla2 Met Enkephalin 10 to 30γ/mouse ivt 15 minutes later
[11] = 30 γ/mouse ivt, D Ala2 Met Enkephalin 0.3 γ/mouse

COC(=O)CNC(=O)[C@H](Cc1ccccc1)NP(=O)(O)O [Derivative 2, N-phosphoryl L-phenylalanine-glycine methyl ester]
protection from phenylbenzoquinone-induced pain ([1]; 15 mg/kg i.v.): protect the treated animals from phenylbenzoquinone-induced pain | antagonism of the protective effect by Naloxone ([1]; in words): antagonized by Naloxone | antalgic effect in the hot plate test [2]: have an antalgic effect | ED50 ([2]; Mus musculus, iv, read-out: ED50): 30 mg/kg | potentiation of DAla2 Met Enkephalin [3, 10]: potentiate very significantly | increase in the licking time with respect to animals treated with DAla2 Met Enkephalin (0.3γ intraventricular) [4]: 100% | IC50 [5]: 70 nM

COC(=O)CC(=O)NC(Cc1ccccc1)NP(=O)(O)O (stereo not drawn) [Derivative 4, N-phosphoryl, N'-(2-methoxycarbonylacetyl) 1,1-diamino 2-phenyl ethane]
IC50 [5]: 100 nM

O=CN(O)CC(Cc1ccccc1)C(=O)NCC(=O)NCc1ccc(F)cc1 (stereo not drawn) [Derivative 63, N-(N-hydroxy 3-formamido 2-benzylpropanoyl)-glycine p-fluoro benzylamide]
weight increase rate and signs of toxicity ([6]; 50 mg/kg i.p. three times a day (150 mg/kg/day)): did not exhibit any change in the weight increase rate or any sign of toxicity | weight of the organs and anatomic-pathologic examination ([6]; 50 mg/kg i.p. three times a day, versus solvent controls): no difference

O=CN(O)CC(Cc1ccccc1)NC(=O)CC(=O)O (stereo not drawn) [Derivative 69]
IC50 [5]: 7 nM

O=CN(O)CC(Cc1ccccc1)NC(=O)CC(=O)NCc1ccccc1 (stereo not drawn) [Derivative 71]
IC50 [5]: 200 nM

O=C(O)CNC(=O)C(CS)Cc1ccccc1 (stereo not drawn) [Thiorphan, reference compound]
elimination of the abdominal stretchings of the mouse ([1]; in words, thiorphan even at a heavy dose): never completely eliminates the abdominal stretchings | (Met^5) liberated enkephalin ([7]; added inhibitor 10^-7 M): 280 ± 30 pmol/g/min | recovery of the pentapeptide ([7]; in words, presence of thiorphan): approximately doubled

D Ala2 Met Enkephalin [reference compound]
activity of D Ala2 Met Enkephalin alone ([4]; 0.3 γ/mouse, intraventricular): inactive in itself

N-(2-bensyloxyamino 3-phenyl propanoyl)-glycine isoamylamide [Derivative 22]
protection from phenylbenzoquinone-induced pain ([1]; 18 mg/kg i.v.): protect the treated animals from phenylbenzoquinone-induced pain | antagonism of the protective effect by Naloxone ([1]; in words): antagonized by Naloxone | antalgic effect in the hot plate test [2]: have an antalgic effect | ED50 [2]: 18 mg/kg | potentiation of DAla2 Met Enkephalin [3, 10]: potentiate very significantly | increase in the licking time with respect to animals treated with DAla2 Met Enkephalin (0.3γ intraventricular) [4]: 100% | IC50 [5]: 100 nM

N-(N-benzyloxy 3-formamido 2-benzyl propnaoyl)-glycine methyl ester [Derivative 39]
ED50 [2]: 25 mg/kg | (Met^5) liberated enkephalin ([7]; added inhibitor 10^-7 M): 630 ± 50 pmol/g/min | % increase in the licking time with respect to animals treated with D Ala2 Met enkephalin [4, 11]: 300% | IC50 [5]: 3 nM

N-[2-(N-hydroxy carbamoyl 3-phenyl propanoyl]-glycine [Derivative 32]
IC50 [5]: 5 nM

N-[2-(N-hydroxy carbamoyl) 3-phenyl propanoyl]-glycine methyl ester [Derivative 30]
(Met^5) liberated enkephalin ([7]; added inhibitor 10^-7 M): 600 ± 30 pmol/g/min | antagonism of the potentiating effect by Naloxone ([4]; intraventricular): antagonised by Naloxone | potentiation of the effect of a subactive dosage (0.3γ) of D Ala2 Met Enkephalin ([4]; intraventricular): significantly potentiated | % increase in the licking time with respect to animals treated with D Ala2 Met enkephalin [4, 11]: 320% | IC50 [5]: 3 nM

N-[2-(N-hydroxy β-trifluoroethyl carboxamido)3-phenyl propanoyl]-glycine [Derivative 53]
protection from phenylbenzoquinone-induced pain ([1]; 1 mg/kg i.v.): protect the treated animals from phenylbenzoquinone-induced pain | antagonism of the protective effect by Naloxone ([1]; in words): antagonized by Naloxone | antalgic effect in the hot plate test [2]: have an antalgic effect | ED50 [2]: 3 mg/kg | potentiation of DAla2 Met Enkephalin ([3]; 5 mg/kg): also observed | duration (in seconds) of the immobile periods with respect to the controls [8]: significantly reduces | reduction in the blood pressure [9]: reduction in the blood pressure | increase in the licking time with respect to animals treated with DAla2 Met Enkephalin (0.3γ intraventricular) [4]: 100% | IC50 [5]: 50 nM

N-phorphoryl L-alanine-thioproline trifluoroethyl ester [Derivative 21]
(Met^5) liberated enkephalin ([7]; added inhibitor 10^-6 M): 550 ± 40 pmol/g/min | antagonism of the potentiating effect by Naloxone ([4]; intraventricular): antagonised by Naloxone | potentiation of the effect of a subactive dosage (0.3γ) of D Ala2 Met Enkephalin ([4]; intraventricular): significantly potentiated | % increase in the licking time with respect to animals treated with D Ala2 Met enkephalin ([4]; 30 γ/mouse ivt + D Ala2 Met Enkephalin 0.3 γ/mouse + Naloxone 10 mg/kg s.c.): 18% | % increase in the licking time with respect to animals treated with D Ala2 Met enkephalin [4, 11]: 350% | IC50 [5]: 8 nM
